Results taken from patent publication US8173645B2 (Takeda San Diego, Inc., priority 2007, dated 2012).

Target: T1, glucokinase (GK), residues 12-465 of the human enzyme (Homo sapiens, UniProt P35557)
T1 construct: I.D. No. 1 corresponds to residues 12-465 of glucokinase; made in house; host or cells: E. coli DH10b-Tlr
T1 sequence (P35557 with tags, fused parts or gaps isoform P35557-2): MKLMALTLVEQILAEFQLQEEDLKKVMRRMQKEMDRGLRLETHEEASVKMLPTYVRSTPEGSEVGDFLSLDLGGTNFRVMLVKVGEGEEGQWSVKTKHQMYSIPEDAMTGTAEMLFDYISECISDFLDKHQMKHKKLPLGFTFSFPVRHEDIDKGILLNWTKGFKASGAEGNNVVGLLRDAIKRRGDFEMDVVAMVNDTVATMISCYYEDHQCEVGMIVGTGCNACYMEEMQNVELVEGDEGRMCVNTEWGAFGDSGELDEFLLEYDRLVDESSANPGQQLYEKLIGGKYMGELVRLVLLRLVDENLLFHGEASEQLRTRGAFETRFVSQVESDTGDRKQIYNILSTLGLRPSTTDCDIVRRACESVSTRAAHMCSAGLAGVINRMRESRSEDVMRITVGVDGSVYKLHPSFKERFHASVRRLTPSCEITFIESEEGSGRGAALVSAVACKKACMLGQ
Assay: Enzymatic glucokinase activity assay (KinaseGlo luminescence, ATP consumption)
Type: biochemical
Details: 5 μM ATP, 5 mM Glucose; for EC50: GK activation, Kact = concentration giving 50% of the maximal increase in GK activity, read-out: pKact; for Emax: calculated maximal gain in GK enzyme activity at a saturating concentration of the compound, read-out: % ACTmax
Procedure, shortened: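 Activation measured as ATP consumption: residual ATP detected by KinaseGlo luminescence after 60 min at room temperature with 5 μM ATP and 5 mM glucose (Hepes pH 7.2, MgCl2, Brij35, DTT, 2% DMSO). Enzyme was recombinant FLAG-tagged protein from E. coli. Eleven-point twofold series were fitted nonlinearly for pKact and % ACTmax.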

Row | Structure (SMILES) | EC50 [nM] | Emax [%]
1 | N#Cc1cccc(NC(=S)N2CCN([C@@H](CC3CCCCC3)C(=O)Nc3nccs3)C(=O)C2)c1 [Example 116, (S)-2-(4-(3-cyanophenylcarbamothioyl)-2-oxopiperazin-1-yl)-3-cyclohexyl-N-(thiazol-2-yl)propanamide] | ≥ 3160 | ≥ 119
2 | O=C(Nc1nccs1)[C@H](CC1CCCCC1)N1CCN(S(=O)(=O)CC(F)(F)F)CC1=O [Example 93, (S)-3-cyclohexyl-2-(2-oxo-4-(2,2,2-trifluoroethylsulfonyl)piperazin-1-yl)-N-(thiazol-2-yl)propanamide] | 1580 to 2510 | ≥ 119
3 | O=C(Nc1nccs1)[C@H](CC1CCCCC1)N1CCN(C(=O)Nc2ccc3c(c2)OCCO3)CC1=O [Example 145, (S)-4-(3-cyclohexyl-1-oxo-1-(thiazol-2-ylamino)propan-2-yl)-N-(2,3-dihydrobenzo[b][1,4]dioxin-6-yl)-3-oxopiperazine-1-carboxamide] | ≥ 3160 | 74.1 to 97
4 | O=C(Nc1nccs1)[C@H](CC1CCCCC1)N1CCN(C(=O)Nc2ccc(Cl)cc2)CC1=O [Example 137, (S)-N-(4-chlorophenyl)-4-(3-cyclohexyl-1-oxo-1-(thiazol-2-ylamino)propan-2-yl)-3-oxopiperazine-1-carboxamide] | ≥ 3160 | ≤ 74
5 | Cc1cc(S(=O)(=O)N2CCN([C@@H](CC3CCCCC3)C(=O)Nc3nccs3)C(=O)C2)c(C)s1 [Example 180, (S)-3-cyclohexyl-2-(4-(2,5-dimethylthiophen-3-ylsulfonyl)-2-oxopiperazin-1-yl)-N-(thiazol-2-yl)propanamide] | ≤ 631 | 108 to 119

Now from value to compound:

Row | EC50 [nM] | Emax [%] | Structure (SMILES)
6 | ≤ 631 | 108 to 119 | Cc1ccc(F)cc1S(=O)(=O)N1CCN([C@@H](CC2CCCCC2)C(=O)Nc2nccs2)C(=O)C1 [Example 191, (S)-3-cyclohexyl-2-(4-(5-fluoro-2-methylphenylsulfonyl)-2-oxopiperazin-1-yl)-N-(thiazol-2-yl)propanamide]
7 | 794 to 1260 | 97.1 to 107 | Cc1nccc(-c2cccc(S(=O)(=O)N3CCN([C@@H](CC4CCCCC4)C(=O)Nc4nccs4)C(=O)C3)c2)n1 [Example 169, (S)-3-cyclohexyl-2-(4-(3-(2-methylpyrimidin-4-yl)phenylsulfonyl)-2-oxopiperazin-1-yl)-N-(thiazol-2-yl)propanamide]
8 | 794 to 1260 | ≤ 74 | Cc1oncc1S(=O)(=O)N1CCN([C@@H](CC2CCCCC2)C(=O)Nc2nccs2)C(=O)C1 [Example 60, (S)-3-cyclohexyl-2-(4-(5-methylisoxazol-4-ylsulfonyl)-2-oxopiperazin-1-yl)-N-(thiazol-2-yl)propanamide]
9 | 794 to 1260 | 108 to 119 | O=C(Nc1nccs1)[C@H](CC1CCCCC1)N1CCN(S(=O)(=O)c2ccc(F)cc2F)CC1=O [Example 58, (S)-3-cyclohexyl-2-(4-(2,4-difluorophenylsulfonyl)-2-oxopiperazin-1-yl)-N-(thiazol-2-yl)propanamide]
10 | ≤ 631 | 97.1 to 107 | O=C(Nc1nccs1)[C@H](CC1CCCCC1)N1CCN(S(=O)(=O)c2ccccc2)CC1=O [Example 79, (S)-3-cyclohexyl-2-(2-oxo-4-(phenylsulfonyl)piperazin-1-yl)-N-(thiazol-2-yl)propanamide]
11 | 794 to 1260 | 74.1 to 97 | O=C(Nc1nccs1)[C@H](CC1CCCCC1)N1CCN(S(=O)(=O)c2ccc3c(c2)CCO3)CC1=O [Example 102, (S)-3-cyclohexyl-2-(4-(2,3-dihydrobenzofuran-5-ylsulfonyl)-2-oxopiperazin-1-yl)-N-(thiazol-2-yl)propanamide]
12 | ≤ 631 | 97.1 to 107 | CN1CCOc2cc(S(=O)(=O)N3CCN([C@@H](CC4CCCCC4)C(=O)Nc4nccs4)C(=O)C3)ccc21 [Example 44, (S)-3-cyclohexyl-2-(4-(4-methyl-3,4-dihydro-2H-benzo[b][1,4]oxazin-7-ylsulfonyl)-2-oxopiperazin-1-yl)-N-(thiazol-2-yl)propanamide]
